Test system: Spodoptera littoralis
Test: Biological activity on Spodoptera littoralis (Lepidoptera)
Format: in vivo
Conditions: 48 h, 1%o, Table 5, read-out: Activity (mortality class), Spodoptera L.
Procedure: (7) Biological activity on Spodoptera littoralis (Lepidoptera)
Cut tobacco leaves were sprinkled with an aqueous dispersion of the products under examination (see Tables 4 and 5).
After drying, the leaves were infested with 5-day old larvae.
The percentage of mortality of the larvae was determined after 48 hours from treatment (untreated leaves, mortality=0).

SMILES	mortality at 0.1 %
CCOP(=S)(OCC)Oc1nc(C(C)OC)nn1-c1ccccc1 (stereo not shown) [M 8167]	100%

Same assay, conditions: 48 h, read-out: Activity (mortality class), Spodoptera L.

SMILES	mortality at 0.005 %	mortality at 0.1 %
CC=Cc1nc(OP(=S)(OCC)OCC)n(C)n1 [M 8119]	10 to 69%	–
CCOP(=S)(OCC)Oc1nc(C(O)CSC)nn1-c1ccccc1 (stereo not shown) [M 9173]	–	100%
CCOP(=S)(OCC)Oc1nc(C(=O)CSC)nn1-c1ccccc1 [M 8169]	–	10 to 69%
C=C(C)c1nc(OP(=S)(OCC)OCC)n(C)n1 [M 8593]	–	100%
CCOP(=S)(OCC)Oc1nc(C(C)SC)nn1-c1ccccc1 (stereo not shown) [M 8170]	–	70 to 99%

Test system: Pieris brassicae
Test: Biological activity on Pieris brassicae (Lepidoptera)
Format: in vivo
Conditions: 48 h, 1%o, Table 5, read-out: Activity (mortality class), Pieris B.
Procedure: (2) Biological activity on Pieris brassicae (Lepidotera)
Cut-off cauliflower leaves were sprinkled with an aqueous dispersion of the products under examination (see TABLE 5).
After drying, the leaves were infested with 5-day old larvae. The percentage of mortality of the larvae (untreated leaves=0) was determined after 48 hours from treatment.

SMILES	mortality at 0.1 %
CCOP(=S)(OCC)Oc1nc(C(C)OC)nn1-c1ccccc1 (stereo not shown) [M 8167]	100%
CC=Cc1nc(OP(=S)(OCC)OCC)n(C(C)C)n1 [M 9137]	100%

Same assay, conditions: 48 h, read-out: Activity (mortality class), Pieris B.

SMILES	mortality at 0.001 %	mortality at 0.1 %
CC=Cc1nc(OP(=S)(OCC)OCC)n(C)n1 [M 8119]	10 to 69%	–
CCOP(=S)(OCC)Oc1nc(C(O)CSC)nn1-c1ccccc1 (stereo not shown) [M 9173]	–	100%
CCOP(=S)(OCC)Oc1nc(C(=O)CSC)nn1-c1ccccc1 [M 8169]	–	100%
C=C(C)c1nc(OP(=S)(OCC)OCC)n(C)n1 [M 8593]	–	100%
CCOP(=S)(OCC)Oc1nc(C(C)SC)nn1-c1ccccc1 (stereo not shown) [M 8170]	–	100%

Test system: Tetranychus urticae
Test: Biological activity on adults of Tetranychus urticae (Acari)
Format: in vivo
Conditions: 24 h, 0.01%o, Table 5, read-out: Activity (mortality class), Tetranychus U. (adults)
Procedure: (5) Biological activity on adults of Tetranychus urticae (Acari)
Discs of bean leaves were infested with adult acari and then sprinkled with an aqueous dispersion of the products under examination (see Tables 4 and 5).
The mortality percentage was determined after 24 hours from treatment (untreated leaf discs, mortality=0).

SMILES	mortality at 0.001 %
C=Cc1nc(OP(=S)(OCC)OCC)n(C)n1 [M 8476]	100%
CC=Cc1nc(OP(=S)(OCC)OCC)n(C(C)C)n1 [M 9137]	10 to 69%

Same assay, conditions: 24 h, 1%o, Table 5, read-out: Activity (mortality class), Tetranychus U. (adults)

SMILES	mortality at 0.1 %
CCOP(=S)(OCC)Oc1nc(C(C)OC)nn1-c1ccccc1 (stereo not shown) [M 8167]	100%
CC=Cc1nc(OP(=S)(OCC)OCC)n(C(C)C)n1 [M 9137]	100%

Same assay, conditions: 24 h, read-out: Activity (mortality class), Tetranychus U. (adults)

SMILES	mortality at 0.001 %	mortality at 0.1 %
CC=Cc1nc(OP(=S)(OCC)OCC)n(C)n1 [M 8119]	70 to 99%	–
CCOP(=S)(OCC)Oc1nc(C(O)CSC)nn1-c1ccccc1 (stereo not shown) [M 9173]	–	100%
CCOP(=S)(OCC)Oc1nc(C(=O)CSC)nn1-c1ccccc1 [M 8169]	–	100%
C=C(C)c1nc(OP(=S)(OCC)OCC)n(C)n1 [M 8593]	10 to 69%	100%
CCOP(=S)(OCC)Oc1nc(C(C)SC)nn1-c1ccccc1 (stereo not shown) [M 8170]	–	100%

Test system: Locusta M.
Test: Activity on Locusta M.
Conditions: in vivo

SMILES	Activity (mortality class), Locusta M.
CC=Cc1nc(OP(=S)(OCC)OCC)n(C)n1 [M 8119]	++ (100% of mortality)
C=Cc1nc(OP(=S)(OCC)OCC)n(C)n1 [M 8476]	++ (100% of mortality)
CCOP(=S)(OCC)Oc1nc(C(C)SC)nn1-c1ccccc1 (stereo not shown) [M 8170]	++ (100% of mortality)

Test system: Leptinotarsa decemlineata
Test: Biological activity on Leptinotarsa decemlineata (Coleoptera)
Format: in vivo
Conditions: 48 h, 0.05%o, Table 5, read-out: Activity (mortality class), Leptinotarsa D.
Procedure: (3) Biological activity on Leptinotarsa decemlineata (Coleoptera)
Small potato plants grown in pots were infested with 4-day old larvae, and were then sprinkled with an aqueous dispersion of the products under examination (see Tables 4 and 5).
The mortality percentage (untreated small plants=0) was determined after 48 hours from treatment.

SMILES	mortality at 0.005 %
CC=Cc1nc(OP(=S)(OCC)OCC)n(C(C)C)n1 [M 9137]	100%

Same assay, conditions: 48 h, 1%o, Table 5, read-out: Activity (mortality class), Leptinotarsa D.

SMILES	mortality at 0.1 %
CCOP(=S)(OCC)Oc1nc(C(C)OC)nn1-c1ccccc1 (stereo not shown) [M 8167]	100%
CC=Cc1nc(OP(=S)(OCC)OCC)n(C(C)C)n1 [M 9137]	100%

Same assay, conditions: 48 h, read-out: Activity (mortality class), Leptinotarsa D.

SMILES	mortality at 0.005 %	mortality at 0.1 %
CC=Cc1nc(OP(=S)(OCC)OCC)n(C)n1 [M 8119]	10 to 69%	–
CCOP(=S)(OCC)Oc1nc(C(O)CSC)nn1-c1ccccc1 (stereo not shown) [M 9173]	–	100%
CCOP(=S)(OCC)Oc1nc(C(=O)CSC)nn1-c1ccccc1 [M 8169]	–	100%
C=C(C)c1nc(OP(=S)(OCC)OCC)n(C)n1 [M 8593]	–	100%
CCOP(=S)(OCC)Oc1nc(C(C)SC)nn1-c1ccccc1 (stereo not shown) [M 8170]	–	100%

Test system: Tetranychus urticae
Test: Biological activity on Tetranychus urticae eggs (Acari)
Format: in vivo
Conditions: bean leaf discs, 144 h
Procedure: (6) Biological activity on Tetranychus urticae (Acari)
Small discs of bean leaves were infested with Acari eggs and were then sprinkled with an aqueous dispersion of the products under examination (see Table 5).
The mortality percentage was determined after 6 days from treatment (untreated leaf discs, mortality=0).

SMILES	Activity (mortality class), Tetranychus U. (eggs)
CCOP(=S)(OCC)Oc1nc(C(=O)CSC)nn1-c1ccccc1 [M 8169]	++ (100% of mortality)
C=C(C)c1nc(OP(=S)(OCC)OCC)n(C)n1 [M 8593]	± (10-69% of mort.)
CCOP(=S)(OCC)Oc1nc(C(C)SC)nn1-c1ccccc1 (stereo not shown) [M 8170]	++ (100% of mortality)
CCOP(=S)(OCC)Oc1nc(C(C)OC)nn1-c1ccccc1 (stereo not shown) [M 8167]	++ (100% of mortality)
CC=Cc1nc(OP(=S)(OCC)OCC)n(C(C)C)n1 [M 9137]	++ (100% of mortality)

Test system: Blatta orientalis
Test: Biological activity on Blatta orientalis (Ortoptera)
Format: in vivo
Conditions: Blatta orientalis, 48 h, read-out: Activity (mortality class), Blatta O.
Procedure: (10) Biological activity on Blatta orientalis (Ortoptera)
The bottom and walls of glass crystallizers were treated uniformly with an acetonic solution of the products under examination (see Tables 4 and 5). After evaporation of the solvent, into each crystallizer were introduced ten 80-100 days old neanides. The crystallizers were then closed with a metal net cover. After 24 hours from the start of the treatment, the insects were transferred to similar untreated crystallizers, and there were appropriately nourished in conventional manner.
The percentage of mortality (untreated insects=0) was determined after 48 hours from the start of the treatment.

SMILES	mortality at 0.01 g/m2	mortality at 1 g/m2
CC=Cc1nc(OP(=S)(OCC)OCC)n(C)n1 [M 8119]	100%	–
CCOP(=S)(OCC)Oc1nc(C(O)CSC)nn1-c1ccccc1 (stereo not shown) [M 9173]	–	100%
C=C(C)c1nc(OP(=S)(OCC)OCC)n(C)n1 [M 8593]	70 to 99%	100%

Same assay, conditions: Blatta orientalis, 48 h; 0,01 g/m^2; Table 5; read-out: Activity (mortality class), Blatta O.

SMILES	mortality at 0.01 g/m2
C=Cc1nc(OP(=S)(OCC)OCC)n(C)n1 [M 8476]	100%
CC=Cc1nc(OP(=S)(OCC)OCC)n(C(C)C)n1 [M 9137]	10 to 69%

Same assay, conditions: Blatta orientalis, 48 h; 1 g/m^2; Table 5; read-out: Activity (mortality class), Blatta O.

SMILES	mortality at 1 g/m2
CC=Cc1nc(OP(=S)(OCC)OCC)n(C(C)C)n1 [M 9137]	100%

Test system: Macrosiphum euphorbiae
Test: Biological activity on Macrosiphum euphorbiae (Aphides)
Format: in vivo
Conditions: potato plants, 24 h
Procedure: (1) Biological activity on Macrosiphum euphorbiae (Aphides)
Potato plants grown in pots were infested with adult females of aphides and, after several hours, were sprinked with an aqueous dispersion of the products under examination (see TABLE 5).
The percentage of mortality was assessed after 24 hours after the treatment (untreated plants=0).

SMILES	Activity (mortality class), Macrosiphum E.
CCOP(=S)(OCC)Oc1nc(C(O)CSC)nn1-c1ccccc1 (stereo not shown) [M 9173]	++ (100% of mortality)
CCOP(=S)(OCC)Oc1nc(C(=O)CSC)nn1-c1ccccc1 [M 8169]	± (10-69% of mort.)
C=C(C)c1nc(OP(=S)(OCC)OCC)n(C)n1 [M 8593]	++ (100% of mortality)
CCOP(=S)(OCC)Oc1nc(C(C)SC)nn1-c1ccccc1 (stereo not shown) [M 8170]	+ (70-99% of mort.)
CCOP(=S)(OCC)Oc1nc(C(C)OC)nn1-c1ccccc1 (stereo not shown) [M 8167]	+ (70-99% of mort.)
CC=Cc1nc(OP(=S)(OCC)OCC)n(C(C)C)n1 [M 9137]	++ (100% of mortality)

Test system: Culex pipiens
Test: Biological activity on Culex pipiens larvae (Diptera)
Format: in vivo
Conditions: 24 h, 2 ppm, Table 5, read-out: Activity (mortality class), Culex P. (larvae)
Procedure: (4) Biological activity on Culex pipiens (Diptera)
Into glasses containing an aqueous dispersion of the products under examination (see Tables 4 and 5) there were introduced mosquito larvae of third and fourth age.
The mortality percentage of the larvae (glasses containing pure water=0) was determined after 24 hours from treatment.

SMILES	mortality at 2 ppm
CC=Cc1nc(OP(=S)(OCC)OCC)n(C(C)C)n1 [M 9137]	100%

Same assay, conditions: 24 h, read-out: Activity (mortality class), Culex P. (larvae)

SMILES	mortality at 0.02 ppm	mortality at 2 ppm
CC=Cc1nc(OP(=S)(OCC)OCC)n(C)n1 [M 8119]	0 to 9%	–
CCOP(=S)(OCC)Oc1nc(C(O)CSC)nn1-c1ccccc1 (stereo not shown) [M 9173]	–	100%
CCOP(=S)(OCC)Oc1nc(C(=O)CSC)nn1-c1ccccc1 [M 8169]	–	100%
C=Cc1nc(OP(=S)(OCC)OCC)n(C)n1 [M 8476]	10 to 69%	–
C=C(C)c1nc(OP(=S)(OCC)OCC)n(C)n1 [M 8593]	10 to 69%	100%
CCOP(=S)(OCC)Oc1nc(C(C)SC)nn1-c1ccccc1 (stereo not shown) [M 8170]	–	100%
CCOP(=S)(OCC)Oc1nc(C(C)OC)nn1-c1ccccc1 (stereo not shown) [M 8167]	–	100%

Reference: patent US4400517A, “Phosphoric esters derived from 1,2,4-triazole having an insecticidal, nematocidal and acaricidal action, and their preparation” (priority 1976, dated 1983)
